Values of other authors, collected in patent US20230157963A1, “SOLID ORAL BEADS OF FUNCTIONAL INGREDIENTS AND METHODS OF MAKING THE SAME” (Nulixir Inc., priority 2021, published 2023).

Details: categorization at pH=7 unless stated otherwise; reference phases water and n-octanol

| Compound | log P |
| --- | --- |
| COc1cc2c(c(OC)c1OC)-c1c(cc3c(c1OC)OCO3)CC(C)C(C)C2 (single isomer, unassigned; (-)) [(−)-schisandrin B] | ~4 |
| COc1cc(/C=C/c2ccccc2)oc(=O)c1 [5,6-dehydrokawain] | ~2.9 |
| COC1=CC(=O)OC(/C=C/c2ccc(OC)cc2)C1 (stereo not drawn) [5,6-dihydroyangonin] | ~2.5 |
| CC1=C(CO)C(=O)O[C@@H]([C@@H](C)[C@H]2CC[C@H]3[C@@H]4C[C@H](Cl)[C@]5(O)[C@@H](O)C=CC(=O)[C@]5(C)[C@H]4CC[C@]23C)C1 [6a-chloro-5b-hydroxywithaferin A] | ~3.2 |
| COC1=CC(=O)O[C@@H](CCc2ccc3c(c2)OCO3)C1 [7,8-dihydromethysticin] | ~2.2 |
| COc1ccc(CCc2cc(OC)cc(=O)o2)cc1 [7,8-dihydroyangonin] | ~2.9 |
| COc1cc(/C=C\c2ccc(OC)c(O)c2)oc(=O)c1 [11-hydroxyyangonin] | ~2.2 |
| COc1cc2c(c(OC)c1OC)-c1c(cc(OC)c(OC)c1OC)C[C@](C)(O)[C@@H](C)C2 [(+)-schisandrin] | ~5 |
| COc1cc2c(c(OC)c1OC)-c1c(cc(OC)c(OC)c1OC)C[C@H](C)[C@H](C)C2 [(−)-schisandrin A] | ~3.6 |
| COc1c2c(cc3c1-c1c(cc4c(c1OC)OCO4)C[C@H](C)[C@H](C)C3)OCO2 [(−)-schisandrin C] | ~3.5 |
| CC(C)=C[C@@H]1CO[C@]23C[C@]4(CO2)[C@H](CC[C@@H]2[C@@]5(C)CC[C@H](O[C@@H]6OC[C@H](O)[C@H](O[C@@H]7O[C@H](CO)[C@@H](O)[C@H](O)[C@H]7O)[C@H]6O[C@@H]6O[C@@H](CO)[C@H](O)[C@H]6O)C(C)(C)[C@@H]5CC[C@]24C)[C@H]3[C@@]1(C)O [bacopasaponin C] | ~2 |
| CC(C)=C[C@H]1C[C@](C)(O)[C@@H]2[C@H]3CC[C@@H]4[C@@]5(C)CC[C@H](O[C@@H]6OC[C@H](O)[C@H](O[C@@H]7O[C@H](CO)[C@@H](O)[C@H](O)[C@H]7O)[C@H]6O[C@@H]6O[C@@H](CO)[C@H](O)[C@H]6O)C(C)(C)[C@@H]5CC[C@@]4(C)[C@@]34CO[C@@]2(C4)O1 [bacopaside X] | ~2.2 |
| CC(C)=C[C@H]1C[C@](C)(O)[C@H]2[C@H]3CC[C@@H]4[C@@]5(C)CC[C@H](O[C@@H]6O[C@H](CO)[C@@H](O)[C@H](O[C@@H]7O[C@H](CO)[C@@H](O)[C@H](O)[C@H]7O)[C@H]6O[C@@H]6O[C@@H](CO)[C@H](O)[C@H]6O)C(C)(C)[C@@H]5CC[C@@]4(C)[C@@]34CO[C@@]2(C4)O1 [bacoside A3] | ~2.1 |
| CC(C)=CCC[C@](C)(O[C@@H]1O[C@H](CO[C@@H]2O[C@H](CO)[C@@H](O)[C@H](O)[C@H]2O)[C@@H](O)[C@H](O)[C@H]1O)[C@H]1CC[C@]2(C)[C@@H]1[C@H](O)C[C@@H]1[C@@]3(C)CC[C@H](O[C@@H]4O[C@H](CO)[C@@H](O)[C@H](O)[C@H]4O[C@@H]4O[C@H](CO)[C@@H](O)[C@H](O)[C@H]4O)C(C)(C)[C@@H]3CC[C@]12C [ginsenoside rb1] | ~−1 |
| CC(C)=CCC[C@](C)(O[C@@H]1O[C@H](CO)[C@@H](O)[C@H](O)[C@H]1O)[C@H]1CC[C@]2(C)[C@@H]1[C@H](O)C[C@@H]1[C@@]3(C)CC[C@H](O)C(C)(C)[C@@H]3[C@@H](O[C@@H]3O[C@H](CO)[C@@H](O)[C@H](O)[C@H]3O)C[C@]12C [ginsenoside rg1] | ~0.8 |
| COc1ccc(C23C=CC(O)CC2N(C)CC3)cc1OC (stereo not drawn) [mesembrenol] | ~2.4 |
| COc1ccc([C@@]23C=CC(=O)C[C@@H]2N(C)CC3)cc1OC [mesembrenone] | ~1.3 |
| COc1ccc([C@@]23CCC(=O)C[C@@H]2N(C)CC3)cc1OC [mesembrine] | ~1.5 |
| COc1nc2c(c(=O)n1C)n(C)c(=O)n2C [methylliberine] | ~−0.083 |
| CC(=O)OC1C=CC(=O)N(C(=O)CCc2ccccc2)C1 (stereo not drawn) [pipermethystine] | ~1.8 |
| COc1cc([C@H]2Oc3cc(O)c4c(=O)c(O)c(-c5ccc(O)cc5)oc4c3O[C@@H]2CO)ccc1O [rhodiolin] | ~2 |
| OC[C@H]1O[C@@H](OCCc2ccc(O)cc2)[C@H](O)[C@@H](O)[C@@H]1O [rhodosin, salidroside] | ~−1 |
| COc1cc2c(c(OC)c1OC)-c1c(cc(OC)c(OC)c1OC)C[C@](C)(O)[C@@H](C)C2 [schisandrol A] | ~3.4 |
| N#C[C@@]1(O[C@@H]2O[C@H](CO)[C@@H](O)[C@H](O)[C@H]2O)C=C[C@@H](O)C1 [tetraphyllin B] | ~−2.5 |
| (R)-kawain | ~2.7 |
| bacopaside B | ~2.8 |
| hericerin | ~6.4 |
| herinacine A | ~2.5 |
| schisandroside C | ~1.6 |
| tortuosomine | ~3 |
